Experimental data as given in the NIST ThermoML archive (doi:10.1021/je700260f).
Numbers after ± are expanded uncertainties.

Conditions: 323.15 K, Liquid, Vibrating tube method

FC(C(F)(F)F)C(F)(F)F [1,1,1,2,3,3,3-heptafluoropropane]
Conditions | mass density [kg/m3]
9744 kPa | 1360.2 ± 1.5
9763 kPa | 1360.3 ± 1.5
9782 kPa | 1360.5 ± 1.5
9800 kPa | 1360.6 ± 1.5
9817 kPa | 1360.8 ± 1.5
9836 kPa | 1360.8 ± 1.5
9857 kPa | 1361.2 ± 1.5
9876 kPa | 1361.3 ± 1.5
9894 kPa | 1361.4 ± 1.5
10348 kPa | 1364.7 ± 1.5
10377 kPa | 1364.9 ± 1.5
10394 kPa | 1364.9 ± 1.5
10416 kPa | 1365.1 ± 1.5
10433 kPa | 1365.2 ± 1.5
10451 kPa | 1365.3 ± 1.5
10468 kPa | 1365.4 ± 1.5
10492 kPa | 1365.7 ± 1.5
10512 kPa | 1365.7 ± 1.5
10532 kPa | 1365.9 ± 1.5
10553 kPa | 1366 ± 1.5
10577 kPa | 1366.2 ± 1.5
10595 kPa | 1366.3 ± 1.5
10749 kPa | 1367.4 ± 1.5
10766 kPa | 1367.5 ± 1.5
10786 kPa | 1367.7 ± 1.5
10804 kPa | 1367.8 ± 1.5
10828 kPa | 1367.9 ± 1.5
10845 kPa | 1368.1 ± 1.5
10864 kPa | 1368.3 ± 1.5
10894 kPa | 1368.4 ± 1.5
11387 kPa | 1371.8 ± 1.5
11407 kPa | 1371.9 ± 1.5
11425 kPa | 1372 ± 1.5
11446 kPa | 1372.2 ± 1.5
11463 kPa | 1372.3 ± 1.5
11483 kPa | 1372.5 ± 1.5
11501 kPa | 1372.7 ± 1.5
11519 kPa | 1372.7 ± 1.5
11540 kPa | 1372.9 ± 1.5
12697 kPa | 1380.5 ± 1.5
12717 kPa | 1380.6 ± 1.5
12774 kPa | 1380.8 ± 1.5
12791 kPa | 1381 ± 1.5
12809 kPa | 1381.2 ± 1.5
12835 kPa | 1381.4 ± 1.5
12849 kPa | 1381.5 ± 1.5
12876 kPa | 1381.6 ± 1.5
12893 kPa | 1381.6 ± 1.5
12913 kPa | 1381.8 ± 1.5
12933 kPa | 1382 ± 1.5
12950 kPa | 1382.2 ± 1.5
12971 kPa | 1382.2 ± 1.5
12984 kPa | 1382.4 ± 1.5
13009 kPa | 1382.4 ± 1.5
13183 kPa | 1383.5 ± 1.5
13201 kPa | 1383.6 ± 1.5
13222 kPa | 1383.8 ± 1.5
13245 kPa | 1383.9 ± 1.5
13732 kPa | 1386.8 ± 1.5
13757 kPa | 1387.1 ± 1.5
13777 kPa | 1387.2 ± 1.5
13803 kPa | 1387.2 ± 1.5
13826 kPa | 1387.4 ± 1.5
13851 kPa | 1387.5 ± 1.5
13891 kPa | 1387.8 ± 1.5
13911 kPa | 1387.9 ± 1.5
13940 kPa | 1388.1 ± 1.5
13964 kPa | 1388.4 ± 1.5
13981 kPa | 1388.6 ± 1.5
14001 kPa | 1388.5 ± 1.5
14024 kPa | 1388.6 ± 1.5
14045 kPa | 1388.8 ± 1.5
14066 kPa | 1388.9 ± 1.5
14089 kPa | 1389.2 ± 1.5
14106 kPa | 1389.2 ± 1.5
14126 kPa | 1389.3 ± 1.5
14223 kPa | 1390 ± 1.5
14245 kPa | 1390 ± 1.5
14268 kPa | 1390.2 ± 1.5
14290 kPa | 1390.1 ± 1.5
14307 kPa | 1390.4 ± 1.5
14331 kPa | 1390.5 ± 1.5
14346 kPa | 1390.7 ± 1.6
14525 kPa | 1391.7 ± 1.6
14547 kPa | 1392 ± 1.6
14564 kPa | 1392 ± 1.6
14584 kPa | 1392 ± 1.6
14606 kPa | 1392.1 ± 1.6
14624 kPa | 1392.3 ± 1.6
14649 kPa | 1392.4 ± 1.6
14665 kPa | 1392.5 ± 1.6
14689 kPa | 1392.6 ± 1.6
14710 kPa | 1392.9 ± 1.6
15240 kPa | 1396 ± 1.6
15711 kPa | 1398.5 ± 1.6
15733 kPa | 1398.8 ± 1.6
15763 kPa | 1398.9 ± 1.6
15783 kPa | 1399.1 ± 1.6
15811 kPa | 1399.3 ± 1.6
15834 kPa | 1399.3 ± 1.6
15857 kPa | 1399.5 ± 1.6
15884 kPa | 1399.6 ± 1.6
